Data from publication PMC12624743 (ACS Infectious Diseases, 2025).
Converted amounts (≈) assume the structure as drawn.

What was measured:
[1] = molecular target: T1, N. gonorrhoeae topoisomerase IV ParC^S88P (Neisseria gonorrhoeae, UniProt P48374, S88P); assay: Topoisomerase IV-catalyzed DNA decatenation assay, ParC^S88P; format: biochemical; parameters: His; made in house
T1 sequence (P48374 1-768 S88P): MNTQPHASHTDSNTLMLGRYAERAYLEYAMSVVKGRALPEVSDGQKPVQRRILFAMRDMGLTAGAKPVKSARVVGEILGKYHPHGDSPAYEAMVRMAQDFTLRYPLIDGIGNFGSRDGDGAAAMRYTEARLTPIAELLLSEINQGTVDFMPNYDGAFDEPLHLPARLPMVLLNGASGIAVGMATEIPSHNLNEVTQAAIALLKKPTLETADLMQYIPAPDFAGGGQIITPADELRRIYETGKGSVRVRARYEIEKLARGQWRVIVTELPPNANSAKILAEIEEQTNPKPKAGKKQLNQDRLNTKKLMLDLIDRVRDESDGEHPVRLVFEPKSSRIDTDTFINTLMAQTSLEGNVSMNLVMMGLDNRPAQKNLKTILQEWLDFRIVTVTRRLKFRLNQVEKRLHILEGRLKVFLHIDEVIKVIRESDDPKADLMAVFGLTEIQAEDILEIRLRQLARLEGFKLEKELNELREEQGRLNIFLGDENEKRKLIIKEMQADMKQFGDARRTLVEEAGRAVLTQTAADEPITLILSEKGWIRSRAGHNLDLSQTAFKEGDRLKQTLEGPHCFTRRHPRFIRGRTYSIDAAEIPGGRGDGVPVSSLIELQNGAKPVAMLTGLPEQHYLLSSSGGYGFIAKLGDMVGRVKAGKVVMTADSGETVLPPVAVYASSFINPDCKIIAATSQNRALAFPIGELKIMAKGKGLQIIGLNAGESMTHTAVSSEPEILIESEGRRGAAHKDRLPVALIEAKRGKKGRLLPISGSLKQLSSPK
Description: (§1) All proteins were His-tagged. N. gonorrhoeae WT gyrase (GyrA, GyrB) and topoisomerase IV (ParC, ParE) subunits as well as mutant GyrA^D90N, GyrA^A92T, GyrA^S91F, and GyrA^S91F/D95G gyrase and ParC^D86N and ParC^S88P topoisomerase IV were prepared as described previously. , N. gonorrhoeae mutant GyrA^D95G gyrase and mutant ParC^S87N and ParC^E91G topoisomerase IV were generated using a QuickChange II XL site-directed mutagenesis kit (Agilent Technologies) with custom primers for the desired mutations. Mutant N. gonorrhoeae GyrA and ParC subunits were expressed and purified as described by Ashley et al. with the following modifications to optimize protein expression and lysis: (1) GyrA^D95G was expressed for 2.5 h and ParC^S87N and ParC^E91G were expressed for 3 h before harvesting, and (2) cells were lysed by sonication using a digital sonifier (Branson). The identities of all constructs were confirmed by DNA sequencing, and all enzymes were stored at −80 °C. In all assays, N. gonorrhoeae gyrase or topoisomerase IV was used as a 1:1 GyrA:GyrB or ParC:ParE mixture, respectively, and the stated enzyme concentration reflects that of the holoenzyme (A2B2). […]

[2] = molecular target: T2, N. gonorrhoeae gyrase GyrA^D90N (Neisseria gonorrhoeae, UniProt P48371, D90N); assay: Gyrase-catalyzed DNA supercoiling assay, GyrA^D90N; format: biochemical; conditions: read-out: IC50, inhibition of DNA supercoiling
T2 construct: His; made in house
Description: (§2) All proteins were His-tagged. N. gonorrhoeae WT gyrase (GyrA, GyrB) and topoisomerase IV (ParC, ParE) subunits as well as mutant GyrA^D90N, GyrA^A92T, GyrA^S91F, and GyrA^S91F/D95G gyrase and ParC^D86N and ParC^S88P topoisomerase IV were prepared as described previously. , N. gonorrhoeae mutant GyrA^D95G gyrase and mutant ParC^S87N and ParC^E91G topoisomerase IV were generated using a QuickChange II XL site-directed mutagenesis kit (Agilent Technologies) with custom primers for the desired mutations. […] The identities of all constructs were confirmed by DNA sequencing, and all enzymes were stored at −80 °C. In all assays, N. gonorrhoeae gyrase or topoisomerase IV was used as a 1:1 GyrA:GyrB or ParC:ParE mixture, respectively, and the stated enzyme concentration reflects that of the holoenzyme (A2B2).
(§3) Samples were mixed with 2 μL of loading dye [60% sucrose, 10 mM Tris–HCl (pH 7.9), 0.5% bromophenol blue, and 0.5% xylene cyanol FF] and incubated at 45 °C for 2 min before being subjected to electrophoresis on 1% agarose gels in 100 mM Tris-borate (pH 8.3) and 2 mM EDTA. […] DNA bands were visualized with medium-range ultraviolet light and quantified using an Alpha Innotech digital imaging system (Protein Simple). DNA supercoiling was monitored by the conversion of relaxed to supercoiled plasmid.

[3] = molecular target: N. gonorrhoeae topoisomerase IV ParC^S87N (Neisseria gonorrhoeae, UniProt P48374, S87N); assay: Topoisomerase IV-catalyzed DNA decatenation assay, ParC^S87N; format: biochemical; parameters: His; made in house
Description: as §1

[4] = molecular target: T3, N. gonorrhoeae gyrase GyrA^A92T (Neisseria gonorrhoeae, UniProt P48371, A92T); assay: Gyrase-catalyzed DNA supercoiling assay, GyrA^A92T; format: biochemical
T3 construct: His; made in house
Description: as §2, §3

[5] = molecular target: T4, N. gonorrhoeae gyrase GyrA^S91F/D95G (Neisseria gonorrhoeae, UniProt P48371, D95G/S91F); assay: Gyrase-catalyzed DNA supercoiling assay, GyrA^S91F/D95G; format: biochemical; conditions: read-out: IC50, inhibition of DNA supercoiling
T4 construct: His; made in house
Description: as §2, §3

WT N. gonorrhoeae gyrase = molecular target: T5, WT N. gonorrhoeae gyrase (Neisseria gonorrhoeae, UniProt P48371); assay: Gyrase-catalyzed DNA supercoiling assay, WT; format: biochemical; conditions: relaxed pBR322, 1.5 mM ATP, read-out: IC50, inhibition of DNA supercoiling
T5 construct: His; made in house
Description: as §2, §3

[6] = system: N. gonorrhoeae FA1090E-4 (GyrA^D90N/ParC^WT); assay: MIC by agar dilution, GyrA^D90N strain; format: cell-based; conditions: Neisseria gonorrhoeae
Description: This strain was designated FA1090E-4 (GyrA^D90N).
Minimum inhibitory concentration (MIC) of test compounds was determined by an agar dilution method, the reference testing method for N. gonorrhoeae according to the standards of the Clinical and Laboratory Standards Institute and the CDC.

T3 sequence (P48371 whole entry A92T): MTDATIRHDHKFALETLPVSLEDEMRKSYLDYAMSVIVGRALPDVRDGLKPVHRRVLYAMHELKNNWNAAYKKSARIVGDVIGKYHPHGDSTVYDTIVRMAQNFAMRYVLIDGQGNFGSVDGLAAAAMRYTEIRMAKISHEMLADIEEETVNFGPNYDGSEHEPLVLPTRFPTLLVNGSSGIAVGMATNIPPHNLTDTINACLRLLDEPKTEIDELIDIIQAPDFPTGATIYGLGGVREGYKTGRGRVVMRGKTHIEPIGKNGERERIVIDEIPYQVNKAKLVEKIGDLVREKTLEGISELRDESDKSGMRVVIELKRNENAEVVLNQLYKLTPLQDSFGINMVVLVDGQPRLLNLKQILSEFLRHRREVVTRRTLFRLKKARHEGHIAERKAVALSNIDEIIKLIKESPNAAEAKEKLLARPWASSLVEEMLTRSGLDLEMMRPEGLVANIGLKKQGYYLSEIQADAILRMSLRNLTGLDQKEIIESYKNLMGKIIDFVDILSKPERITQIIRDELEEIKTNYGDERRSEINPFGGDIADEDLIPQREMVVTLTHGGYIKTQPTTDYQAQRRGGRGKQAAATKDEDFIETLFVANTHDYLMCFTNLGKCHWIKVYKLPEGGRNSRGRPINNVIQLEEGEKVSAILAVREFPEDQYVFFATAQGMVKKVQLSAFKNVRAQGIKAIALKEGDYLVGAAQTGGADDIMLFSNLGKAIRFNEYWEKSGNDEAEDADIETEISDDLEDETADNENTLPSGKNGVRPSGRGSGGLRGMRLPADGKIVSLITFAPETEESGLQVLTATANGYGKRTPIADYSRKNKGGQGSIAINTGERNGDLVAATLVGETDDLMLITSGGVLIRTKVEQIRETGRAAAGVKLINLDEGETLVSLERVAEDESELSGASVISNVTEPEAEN
T3 sequence (P22118 whole entry partner): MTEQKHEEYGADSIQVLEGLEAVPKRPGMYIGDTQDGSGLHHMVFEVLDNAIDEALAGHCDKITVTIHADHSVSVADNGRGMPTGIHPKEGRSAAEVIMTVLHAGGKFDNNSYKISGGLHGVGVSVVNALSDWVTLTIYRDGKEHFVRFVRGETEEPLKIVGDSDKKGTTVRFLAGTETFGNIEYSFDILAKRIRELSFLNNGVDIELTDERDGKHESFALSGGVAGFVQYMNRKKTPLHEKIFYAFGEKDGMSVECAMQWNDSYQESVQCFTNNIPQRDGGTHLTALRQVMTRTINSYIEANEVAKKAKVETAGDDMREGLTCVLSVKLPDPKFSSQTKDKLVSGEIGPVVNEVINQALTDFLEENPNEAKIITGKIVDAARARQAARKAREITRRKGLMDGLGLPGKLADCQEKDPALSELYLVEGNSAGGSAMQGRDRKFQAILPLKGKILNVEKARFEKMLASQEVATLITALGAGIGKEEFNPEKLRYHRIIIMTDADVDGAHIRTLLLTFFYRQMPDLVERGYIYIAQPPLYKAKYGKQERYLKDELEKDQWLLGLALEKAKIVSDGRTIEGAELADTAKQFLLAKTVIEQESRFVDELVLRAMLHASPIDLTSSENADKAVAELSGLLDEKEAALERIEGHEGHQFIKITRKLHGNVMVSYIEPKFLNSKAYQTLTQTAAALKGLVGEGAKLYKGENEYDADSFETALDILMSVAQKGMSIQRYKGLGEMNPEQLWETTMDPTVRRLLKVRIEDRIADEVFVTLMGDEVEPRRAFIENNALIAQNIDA
Sequence of N. gonorrhoeae topoisomerase IV ParC^S87N (P48374 whole entry S87N): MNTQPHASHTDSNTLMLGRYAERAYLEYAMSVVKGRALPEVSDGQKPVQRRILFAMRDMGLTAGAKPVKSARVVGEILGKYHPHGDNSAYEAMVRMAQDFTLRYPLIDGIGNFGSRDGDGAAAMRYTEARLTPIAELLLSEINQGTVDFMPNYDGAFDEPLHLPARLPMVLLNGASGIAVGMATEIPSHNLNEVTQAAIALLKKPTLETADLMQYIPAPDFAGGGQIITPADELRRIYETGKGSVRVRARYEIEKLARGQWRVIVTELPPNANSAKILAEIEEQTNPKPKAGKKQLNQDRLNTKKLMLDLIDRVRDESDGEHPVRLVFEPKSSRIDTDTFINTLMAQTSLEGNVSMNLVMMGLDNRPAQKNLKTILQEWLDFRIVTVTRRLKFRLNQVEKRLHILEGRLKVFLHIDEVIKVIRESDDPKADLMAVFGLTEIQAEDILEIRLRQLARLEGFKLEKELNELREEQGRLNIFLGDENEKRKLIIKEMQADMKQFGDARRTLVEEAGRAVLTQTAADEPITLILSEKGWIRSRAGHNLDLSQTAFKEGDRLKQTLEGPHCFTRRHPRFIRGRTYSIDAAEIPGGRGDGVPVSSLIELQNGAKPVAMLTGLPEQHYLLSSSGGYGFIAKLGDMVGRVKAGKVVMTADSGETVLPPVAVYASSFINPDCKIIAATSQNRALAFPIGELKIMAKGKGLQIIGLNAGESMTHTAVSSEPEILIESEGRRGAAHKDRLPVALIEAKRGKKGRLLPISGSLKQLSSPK
T5 sequence (P48371 whole entry): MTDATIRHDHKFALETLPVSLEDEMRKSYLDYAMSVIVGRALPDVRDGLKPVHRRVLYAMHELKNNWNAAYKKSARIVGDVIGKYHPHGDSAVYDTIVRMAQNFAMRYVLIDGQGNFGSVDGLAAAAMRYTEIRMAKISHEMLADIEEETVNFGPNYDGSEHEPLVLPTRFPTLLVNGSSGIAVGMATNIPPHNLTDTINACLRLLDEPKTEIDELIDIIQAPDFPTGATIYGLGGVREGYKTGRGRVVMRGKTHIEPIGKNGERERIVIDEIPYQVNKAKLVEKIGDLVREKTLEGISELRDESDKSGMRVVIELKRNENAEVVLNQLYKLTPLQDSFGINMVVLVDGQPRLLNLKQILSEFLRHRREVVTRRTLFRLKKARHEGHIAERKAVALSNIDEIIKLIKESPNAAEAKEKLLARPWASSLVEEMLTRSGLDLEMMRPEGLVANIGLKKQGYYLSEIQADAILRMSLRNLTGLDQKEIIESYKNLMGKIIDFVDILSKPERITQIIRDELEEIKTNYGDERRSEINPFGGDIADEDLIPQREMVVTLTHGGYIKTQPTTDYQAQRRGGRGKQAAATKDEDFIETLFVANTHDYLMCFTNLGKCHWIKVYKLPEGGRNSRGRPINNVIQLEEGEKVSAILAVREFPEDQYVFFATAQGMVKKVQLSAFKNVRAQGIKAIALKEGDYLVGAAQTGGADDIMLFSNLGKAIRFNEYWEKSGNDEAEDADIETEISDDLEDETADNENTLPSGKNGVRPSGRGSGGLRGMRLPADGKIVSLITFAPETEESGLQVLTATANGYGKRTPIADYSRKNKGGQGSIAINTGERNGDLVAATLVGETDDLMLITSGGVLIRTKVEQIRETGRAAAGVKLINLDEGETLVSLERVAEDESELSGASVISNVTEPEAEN
T5 sequence (P22118 whole entry partner): as the sequence (P22118 whole entry partner) above

With `O=c1ccc2ncc(=O)n3c2n1C[C@H]3CN1CCC(NCc2cc3c(cn2)OCCC3)CC1` [gepotidacin] the IC50 [1] was 1.2 µM, the “effect of mutation on gepotidacin susceptibility in decatenation assays” value ([1]; ParC S88P vs WT) was “no effect” and the IC50 [2] was > 100 µM. The IC50 [3] was 0.8 µM, the IC50 ([4]; GyrA A92T gyrase, read-out: IC50, inhibition of DNA supercoiling) was 8.5 ± 2.1 µM and the “fold increase of supercoiling IC50 vs WT gyrase” value ([4]; GyrA A92T vs WT) was ~1.7 fold. The IC50 [5] was 3.6 ± 2.4 µM, the IC50 (WT N. gonorrhoeae gyrase) was 5.1 ± 2.3 µM and the MIC [6] was 1 µg/mL (≈ 2.23 µM).
